In paper PMC3378324 (Febs Letters, 2012):
Where no end group is shown, it is not given here.

Columns and labels:
[1] = test system: Hck-SH3; experiment: Yeast two-hybrid assay; assay type: cell-based, human; conditions: negative control for RT-loop selection
[2] = test system: Fyn(R96I)-SH3; experiment: Yeast two-hybrid assay; assay type: cell-based, human; conditions: negative control for RT-loop selection
[3] = biological target: Fyn(WT)-SH3 (Homo sapiens, UniProt P06241); experiment: Yeast two-hybrid assay; assay type: cell-based; conditions: negative control for RT-loop selection
Chain of Fyn(WT)-SH3 (P06241 82-143 limits assumed): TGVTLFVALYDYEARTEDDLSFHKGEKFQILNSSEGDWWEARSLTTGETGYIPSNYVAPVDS

[4] = test system: Hck-SH3; conditions: ITC, ref [12]; cited from earlier work

SAM68: Src-associated in mitosis 68 kDa (SAM68) protein
yeast two-hybrid interaction strength [1]: interacted with comparable strength with every SH3 domain | yeast two-hybrid interaction strength [2]: interacted with comparable strength with every SH3 domain | yeast two-hybrid interaction strength [3]: interacted with comparable strength with every SH3 domain

PTPPTPAPRTMPPTKPQPPARPPP [ALIXPI]
binding characteristics toward Hck-SH3 compared with ALIXV+PRR [4]: did not fully reproduce the binding characteristics of ALIXV+PRR toward Hck-SH3
